Laboratory results taken from patent publication US9320766B2, “Protective effects and application of a lactobacillus plantarum on the alleviation of lead toxicity” (priority 2012, dated 2016).
Marks after values point to notes of the source that are not given here.

Tests used:
lead-exposed mice [1] = assay: Lead levels of lead-exposed mice; format: in vivo; details: mice fed 1 g/L lead acetate solution; compared with lead model and negative control groups, FIG. 3
Source text: 40 healthy male Kunming mice of 20-25 g are randomly divided into four groups: namely negative control group, lead acetate model group, Lactobacillus plantarum CCFM8661 treatment group, and calcium disodium edetate treatment group as positive control. The mice of negative control group are fed with ordinary drinking water and the mice of remaining three groups are fed with 1 g/L lead acetate solution to obtain the lead exposure models. The mice of Lactobacillus plantarum CCFM8661 treatment group are daily fed with the 2.0×10^9 cfu/mL skim milk suspension prepared in Example 3 of Specifications, and the mice of positive control treatment group are intraperitoneally injected with 5 g/L disodium edetate calcium agent every day. The blood of mice is collected at the end of the experiment, and the liver, stomach and kidney are collected after these mice are sacrificed.
40 healthy male Kunming mice of 20-25 g are taken and randomly divided into four groups: namely negative control group, lead acetate model group, Lactobacillus plantarum CCFM8661 treatment group and calcium disodium edetate treatment group as positive control. […] These organs are processed in accordance with above digestion processes, and then the lead levels can be determined with above atomic absorption spectrophotometry of Example 2.

lead-exposed mice [2] = assay: Oxidative damage caused by lead exposure (liver GSH and MDA); format: in vivo; details: mice fed 1 g/L lead acetate solution, daily treatment
Source text: 40 healthy male Kunming mice of 20-25 g are taken and randomly divided into four groups: namely negative control group, lead acetate model group, Lactobacillus plantarum CCFM8661 treatment group and calcium disodium edetate (EDTANa2Ca) treatment group as positive control. The mice of negative control group are fed with ordinary drinking water and the mice of remaining three groups are fed with 1 g/L lead acetate solution to obtain the lead exposure models. The mice of Lactobacillus plantarum CCFM8661 treatment group are daily fed with the 2.0×10^9 cfu/mL skim milk suspension prepared in Example 3 of this Specification, and the mice of positive control treatment group are intraperitoneally injected with 5 g/L disodium edetate calcium agent every day. The blood is taken at the end of the experiment, and the livers are taken out after these mice are sacrificed. These organs are processed with the Ellmam method (Ellmam, G. C. Tissue sulfhydryl groups. Archives of biochemistry and biophysics 82(1): 70-77.) and the malondialdehyde (MDA) kit of Nanjing Jiancheng Bioengineering Institute to determine the glutathione (GSH) and MDA levels.

O=C([O-])CN(CCN(CC(=O)[O-])CC(=O)[O-])CC(=O)[O-].[Ca+2].[Na+].[Na+] [EDTANa2Ca, calcium disodium edetate]
lead levels of mice blood, liver, stomach and kidney (lead-exposed mice [1]): higher than that of the negative control group, but lower than that of the lead model control group | GSH (liver) (lead-exposed mice [2]): 2.15 ± 0.50^c mg/g protein | MDA (liver) (lead-exposed mice [2]): 0.15 ± 0.03^c nmol/mg protein
